The subject of assay [1] is HPPD variant AVESA V349 (SEQ ID NO: 47). As to the kind of experiment: biochemical. It is filed as biochemical, Avena sativa. As for the experimental part:
(§1) 25 ul of the overnight cultures were inoculated into fresh 96-deepwell block containing 1 ml Formedium Autoinduction Media (AIM). The AIM cultures were grown for 3h at 37° C. (900rpm) and then transferred to 20° C. overnight (900rpm) to allow protein expression. The overnight cultures were centrifuged and 500 ul of Cellytic B (Sigma Aldrich) was added to resuspend the cell pellets. The coupled HGO assay (Siehl et al, 2014) is used to generate IC50 values for the HPPD variants of interest.
(§2) E. coli BL21 (DE3) cells were transformed with a pET24a vector containing a C-terminally his-tagged Arabidopsis HGO gene, grown and induced overnight as described for the HPPD variants above. The cell pellet was resuspended in phosphate buffered saline at pH 7.4 containing 10% Glycerol, 1mm Tris[2-carboxyethyl] phosphine-HCl (TCEP) plus 30 mM Imidazole and lysed using lysozyme/benzonase. The extract was clarified by low speed centrifugation and purified in the same buffer down a 1 ml His Gravitrap column. The bound HGO was eluted in 0.25M imidazole and the fractions pooled and beaded into liquid nitrogen. All procedures apart from the centrifugation and beading steps were carried out under a nitrogen atmosphere.
(§3) The coupled HGO assay is carried out by adding 10 ul of HPPD extract to a 96-well plate and then adding 40 ul of reaction buffer (50 mM Bis Tris Propane, pH7.0, 25 mM sodium-L-ascorbate, 400μM mercaptoethanol, 50 μM Fe(II)SO4). The plates are left to incubate for 5 minutes on ice. […] 200 ul of HPP/HGO (197 μM hydroxyphenylpyruvic acid, 16 μl/ml Homogentisic Acid Oxidase in reaction buffer as described above) buffer is then added to the well and the reaction is regularly monitored (e.g. every 30 seconds-5 minutes) for absorbance at 330 nm for a given time period (e.g., for between 15-60 minutes). The data can then be used to calculate the IC50 value for each HPPD variant of interest.

The test system of assay [2] is HPPD variant AVESA V357 (SEQ ID NO: 53). Description: biochemical. It is filed as biochemical, Avena sativa. As for the experimental part:
as §1, §2, §3

Assay [3] addresses HPPD variant AVESA V357 (SEQ ID NO: 53) (Avena sativa, UniProt A0ACD5V6K6, A327R/I340E/L359M/P271N/R214G/S304T/V218I). As to the kind of experiment: biochemical. It is filed as biochemical. As for the experimental part: as §1, §2, §3
Assay [4] concerns the target HPPD variant AVESA V208 (SEQ ID NO: 14) (Avena sativa, UniProt A0ACD5V6K6, A327R/I340E/L359M/P271N/V218I). Description: biochemical. The format is biochemical. As for the experimental part:
as §1, §2, §3

Assay [5] deals with HPPD variant AVESA V349 (SEQ ID NO: 47) (Avena sativa, UniProt A0ACD5V6K6, A327R/I340E/L359M/P271N/S304T/V218I). As to the kind of experiment: biochemical. It is filed as biochemical. As for the experimental part: as §1, §2, §3
Sequence of HPPD variant AVESA V349 (SEQ ID NO: 47) (Avena sativa, UniProt A0ACD5V6K6, A327R/I340E/L359M/P271N/S304T/V218I) (A0ACD5V6K6 entry or part of it V218I/P271N/S304T/A327R/I340E/L359M): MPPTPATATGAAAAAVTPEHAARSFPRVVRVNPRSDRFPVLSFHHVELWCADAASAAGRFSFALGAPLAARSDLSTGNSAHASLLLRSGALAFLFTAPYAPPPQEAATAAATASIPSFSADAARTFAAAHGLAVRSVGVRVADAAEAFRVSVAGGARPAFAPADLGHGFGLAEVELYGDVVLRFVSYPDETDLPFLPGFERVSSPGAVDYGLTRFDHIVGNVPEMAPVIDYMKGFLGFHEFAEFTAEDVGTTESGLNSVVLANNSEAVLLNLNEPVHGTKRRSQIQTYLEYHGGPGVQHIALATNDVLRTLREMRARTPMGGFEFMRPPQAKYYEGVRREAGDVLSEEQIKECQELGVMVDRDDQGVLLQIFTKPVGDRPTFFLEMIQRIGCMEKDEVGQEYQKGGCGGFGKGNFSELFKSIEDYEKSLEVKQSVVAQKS
Assay [6] addresses HPPD variant AVESA V351 (SEQ ID NO: 50) (Avena sativa, UniProt A0ACD5V6K6, A327R/G411A/I340E/L359Y/R214G/S304T/V218I). As to the kind of experiment: biochemical. It is filed as biochemical. As for the experimental part:
as §1, §2, §3

The target of assay [7] is HPPD variant AVESA V296 (SEQ ID NO: 20) (Avena sativa, UniProt A0ACD5V6K6, A327R/G411A/I340E/L359Y/R214G/V218I). As to the kind of experiment: biochemical. The format is biochemical. As for the experimental part: as §1, §2, §3
Sequence of HPPD variant AVESA V296 (SEQ ID NO: 20) (A0ACD5V6K6 entry or part of it R214G/V218I/A327R/I340E/L359Y/G411A): as the sequence (A0ACD5V6K6 entry or part of it V218I/P271N/S304T/A327R/I340E/L359M) above, with R214G, N271P, T304S, M359Y, G411A counted along it
The target of assay [8] is HPPD variant AVESA V313 (SEQ ID NO: 38) (Avena sativa, UniProt A0ACD5V6K6, A327R/I340E/L359Y/P271N/R214G/V218I/V260A). Description: biochemical. It is filed as biochemical. As for the experimental part:
as §1, §2, §3

The target of assay [9] is HPPD variant AVESA V358 (SEQ ID NO: 56) (Avena sativa, UniProt A0ACD5V6K6, A327R/I340E/L359M/P271N/R214G/S304T/V218I/V260A). Description: biochemical. The format is biochemical. As for the experimental part: as §1, §2, §3
Sequence of HPPD variant AVESA V358 (SEQ ID NO: 56) (A0ACD5V6K6 entry or part of it R214G/V218I/V260A/P271N/S304T/A327R/I340E/L359M): as the sequence (A0ACD5V6K6 entry or part of it V218I/P271N/S304T/A327R/I340E/L359M) above, with R214G, V260A counted along it
Assay [10] has as its target HPPD variant AVESA V180 (SEQ ID NO: 124) (Avena sativa, UniProt A0ACD5V6K6, A327R/G411A/I340E/L359M/V218I). As to the kind of experiment: biochemical. The format is biochemical. As for the experimental part:
as §1, §2, §3

Assay [11] concerns the target HPPD variant AVESA V306 (SEQ ID NO: 32) (Avena sativa, UniProt A0ACD5V6K6, A327R/I340E/L359M/P271N/R214G/V218I). As to the kind of experiment: biochemical. The format is biochemical. As for the experimental part: as §1, §2, §3
The target of assay [12] is HPPD variant AVESA V332 (SEQ ID NO: 44) (Avena sativa, UniProt A0ACD5V6K6, A327R/I340E/K404N/L359M/P271N/R214G/V218I/V260A). As to the kind of experiment: biochemical. It is filed as biochemical. As for the experimental part: as §1, §2, §3
Sequence of HPPD variant AVESA V332 (SEQ ID NO: 44) (A0ACD5V6K6 entry or part of it R214G/V218I/V260A/P271N/A327R/I340E/L359M/K404N): as the sequence (A0ACD5V6K6 entry or part of it V218I/P271N/S304T/A327R/I340E/L359M) above, with R214G, V260A, T304S, K404N counted along it
The target of assay [13] is HPPD variant AVESA V162 (SEQ ID NO: 122) (Avena sativa, UniProt A0ACD5V6K6, A327R/I340E/L359M/V218I). As to the kind of experiment: biochemical. The format is biochemical. As for the experimental part:
as §1, §2, §3

Assay [14] concerns HPPD variant APESV V162 (SEQ ID NO: 123). Description: coupled HGO assay. The format is biochemical, Apera spica-venti. As for the experimental part:
DNA sequences (SEQ ID NOs: 65-118, 128, 130, 131, and 133), synthesized for expression in E. coli, by GeneWiz (USA) to encode HPPD variants (SEQ ID NOs: 5-58, 122, 124, 125 and 127) derived from either Avena sativa (SEQ ID NOs: 122, 124), Alopecurus myosuroides (SEQ ID NO: 126) or Apera spica-venti (SEQ ID NOs: 123, 125) were transformed into E coli BL21 (DE3) (New England Biolabs) and grown in 0.5 ml Terrific broth +50 ug/ml Kanamycin media in a 96-deepwell block overnight (37° C., 900rpm). 25 ul of the overnight cultures were inoculated into fresh 96-deepwell block containing 1 ml Formedium Autoinduction Media (AIM). The AIM cultures were grown for 3h at 37° C. (900rpm) and then transferred to 20° C. overnight (900rpm) to allow protein expression. The overnight cultures were centrifuged and 500 ul of Cellytic B (Sigma Aldrich) was added to resuspend the cell pellets. The coupled HGO assay (Siehl et al, 2014) is used to generate IC50 values for the HPPD variants of interest.
as §2, §3

[15] abbreviates: AVESA V357, SEQ ID NO: 53, read-out: IC50.
Setting [16] is: AVESA V208, SEQ ID NO: 14, read-out: IC50.
The mark [17] stands for this setting: AVESA V349, SEQ ID NO: 47, read-out: IC50.
Setting [18] is: AVESA V351, SEQ ID NO: 50, read-out: IC50.
[19] abbreviates: AVESA V296, SEQ ID NO: 20, read-out: IC50.
Setting [20] is: AVESA V313, SEQ ID NO: 38, read-out: IC50.
The mark [21] stands for this setting: AVESA V358, SEQ ID NO: 56, read-out: IC50.
[22] abbreviates: AVESA V180, SEQ ID NO: 124, read-out: IC50.
Where [23] appears, read: AVESA V306, SEQ ID NO: 32, read-out: IC50.
[24] abbreviates: AVESA V332, SEQ ID NO: 44, read-out: IC50.
Where [25] appears, read: AVESA V162, SEQ ID NO: 122, read-out: IC50.

Read-outs that look alike come from different tables or passages of the source.

A word on the IC50: it is the concentration needed to halve the response being measured.

Sequence of HPPD variant AVESA V208 (SEQ ID NO: 14) (A0ACD5V6K6 entry or part of it V218I/P271N/A327R/I340E/L359M): as the sequence (A0ACD5V6K6 entry or part of it V218I/P271N/S304T/A327R/I340E/L359M) above, with T304S counted along it
Sequence of HPPD variant AVESA V357 (SEQ ID NO: 53) (Avena sativa, UniProt A0ACD5V6K6, A327R/I340E/L359M/P271N/R214G/S304T/V218I) (A0ACD5V6K6 entry or part of it R214G/V218I/P271N/S304T/A327R/I340E/L359M): as the sequence (A0ACD5V6K6 entry or part of it V218I/P271N/S304T/A327R/I340E/L359M) above, with R214G counted along it
Sequence of HPPD variant AVESA V313 (SEQ ID NO: 38) (A0ACD5V6K6 entry or part of it R214G/V218I/V260A/P271N/A327R/I340E/L359Y): as the sequence (A0ACD5V6K6 entry or part of it V218I/P271N/S304T/A327R/I340E/L359M) above, with R214G, V260A, T304S, M359Y counted along it
Sequence of HPPD variant AVESA V306 (SEQ ID NO: 32) (A0ACD5V6K6 entry or part of it R214G/V218I/P271N/A327R/I340E/L359M): as the sequence (A0ACD5V6K6 entry or part of it V218I/P271N/S304T/A327R/I340E/L359M) above, with R214G, T304S counted along it
Sequence of HPPD variant AVESA V162 (SEQ ID NO: 122) (A0ACD5V6K6 entry or part of it V218I/A327R/I340E/L359M): as the sequence (A0ACD5V6K6 entry or part of it V218I/P271N/S304T/A327R/I340E/L359M) above, with N271P, T304S counted along it
Sequence of HPPD variant AVESA V351 (SEQ ID NO: 50) (A0ACD5V6K6 entry or part of it R214G/V218I/S304T/A327R/I340E/L359Y/G411A): as the sequence (A0ACD5V6K6 entry or part of it V218I/P271N/S304T/A327R/I340E/L359M) above, with R214G, N271P, M359Y, G411A counted along it
Sequence of HPPD variant AVESA V180 (SEQ ID NO: 124) (A0ACD5V6K6 entry or part of it V218I/A327R/I340E/L359M/G411A): as the sequence (A0ACD5V6K6 entry or part of it V218I/P271N/S304T/A327R/I340E/L359M) above, with N271P, T304S, G411A counted along it

`COc1ccc(-n2nc(C)cc(C(=O)C3C(=O)CCCC3=O)c2=O)cc1OC` [Herbicide C, dioxopyritrione]: the “IC50 fold improvement compared to SEQ ID NO: 122” value in assay [1] is recorded as above 200 ×. Besides, the “IC50 fold improvement over SEQ ID NO: 122” value in [2] is “no improvement”. The IC50 in [3] (setting [15]) was 0.28 µM; in assay [4] (setting [16]), above 50 µM; in assay [5] (setting [17]) it was above 50 µM; in assay [6] (setting [18]) it was 14.3 µM; in assay [7] (setting [19]), 1.3 µM; in assay [8] (setting [20]) it was around 0.2 µM. The IC50 in assay [9] (setting [21]) was below 0.19 µM; in assay [10] (setting [22]), 0.61 µM; in [11] (setting [23]), above 50 µM; in assay [12] (setting [24]), above 50 µM; in assay [13] (setting [25]), 0.25 µM; in [14], 0.26 µM.

With `Cn1nnnc1NC(=O)c1ccc(C(F)(F)F)nc1-n1cncn1` [Herbicide D, N-(1-methyltetrazol-5-yl)-2-(1,2,4-triazol-1-yl)-6-(trifluoromethyl)pyridine-3-carboxamide], the “IC50 fold improvement compared to SEQ ID NO: 122” value in [1] is given as 29 ×. For the same molecule, the “IC50 fold improvement over SEQ ID NO: 122” value in [2] is on record as 36 ×. Moreover, the IC50 is 243 µM in [3]; 182 µM in [4]; 197 µM in assay [5]; above 500 µM in assay [6]; above 500 µM in assay [7]; 205 µM in assay [8]. The half-inhibitory concentration (IC50) is 177 µM in assay [9]; above 500 µM in [10]; 129 µM in assay [11]; 134 µM in [12]; 6.73 µM in assay [13]; 11.3 µM in assay [14].

For bicyclopyrone, the “IC50 fold improvement compared to SEQ ID NO: 122” value in [1] was determined as 27 ×. Also, in [2], the “IC50 fold improvement over SEQ ID NO: 122” value turned out to be 110 ×. In addition, the IC50 in assay [3] (setting [15]) is 42.1 µM; in assay [4] (setting [16]), 39.3 µM; in assay [5] (setting [17]), 10.2 µM; in [6] (setting [18]), above 500 µM; in assay [7] (setting [19]) it was above 500 µM; in [8] (setting [20]), below 0.39 µM. Further, the half-maximal inhibitory concentration (IC50) in [9] (setting [21]) was below 0.39 µM; in assay [10] (setting [22]) it was 55.6 µM; in assay [11] (setting [23]), 10.2 µM; in [12] (setting [24]) it was 102 µM; in assay [13] (setting [25]), 0.38 µM; in assay [14], below 0.39 µM.

Values taken from patent US20240043860A1, “NOVEL HYDROXYPHENYLPYRUVATE DIOXYGENASE POLYPEPTIDES AND METHODS OF USE THEREOF” (Syngenta Crop Protection AG, priority 2020, published 2024).
